Reference: US10124004B2, “Pyrido[3,4-d]pyrimidine derivative and pharmaceutically acceptable salt thereof” (Teijin Pharma Limited, priority 2015, dated 2018)
Read-outs that look alike come from different tables or passages of the source.

Tests used:
[1] = biological target: T1, CDK2/cyclin A2 (Homo sapiens, UniProt P24941); assay: Human CDK2/cyclin A2 inhibitory activity (QS S Assist CDK2/Cyclin A2_FP Kit, IMAP fluorescence polarization); format: biochemical
T1 construct: purchased Carna Biosciences, Inc. QS S Assist CDK2/Cyclin A2_FP Kit
Outline: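 Kinase activity read as fluorescence polarization (485/535 nm) after phosphorylated fluorescent substrate binds IMAP reagent (30 min, RT, dark). Enzyme (2.5 ng/well) reacted 60 min at RT with ATP/substrate/metal in HEPES pH 7.4 buffer with Tween 20 and DTT; no-enzyme wells define 0% activity; IC50 by curve fit.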

[2] = biological target: T2, CDK4/cyclin D3 (Homo sapiens, UniProt P11802); assay: Human CDK4/cyclin D3 inhibitory activity (QS S Assist CDK4/Cyclin D3_FP Kit, IMAP fluorescence polarization); format: biochemical
T2 construct: purchased Carna Biosciences, Inc. QS S Assist CDK4/Cyclin D3_FP Kit
Outline: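 IMAP fluorescence-polarization kinase assay with kit ATP/substrate/metal mix and 12.5 to 25 ng/well enzyme in 20 mM HEPES pH 7.4, 0.01% Tween20, 2 mM DTT. Reaction ran 45 min at room temperature, then binding reagent was added for 30 min in the dark. IC50 was taken from dose-response fits of percent inhibition.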

[3] = 50% inhibitory concentration against CDK2/cyclin A2, given as class symbol
[4] = 50% inhibitory concentration against CDK4/cyclin D3, given as class symbol
[5] = Human CDK2/cyclin A2 inhibitory activity, read-out: CDK2 Activity symbol
[6] = Human CDK4/cyclin D3 inhibitory activity, read-out: CDK4 Activity symbol

T2 sequence (P11802 whole entry): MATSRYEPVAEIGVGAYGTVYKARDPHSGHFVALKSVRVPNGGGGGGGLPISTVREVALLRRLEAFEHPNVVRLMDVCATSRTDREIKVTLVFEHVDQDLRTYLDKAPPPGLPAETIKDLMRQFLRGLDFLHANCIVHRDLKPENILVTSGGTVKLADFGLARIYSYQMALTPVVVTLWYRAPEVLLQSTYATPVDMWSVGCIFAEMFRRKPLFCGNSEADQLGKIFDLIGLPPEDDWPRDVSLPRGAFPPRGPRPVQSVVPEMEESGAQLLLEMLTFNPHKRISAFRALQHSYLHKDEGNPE
T2 sequence (P30281 whole entry partner): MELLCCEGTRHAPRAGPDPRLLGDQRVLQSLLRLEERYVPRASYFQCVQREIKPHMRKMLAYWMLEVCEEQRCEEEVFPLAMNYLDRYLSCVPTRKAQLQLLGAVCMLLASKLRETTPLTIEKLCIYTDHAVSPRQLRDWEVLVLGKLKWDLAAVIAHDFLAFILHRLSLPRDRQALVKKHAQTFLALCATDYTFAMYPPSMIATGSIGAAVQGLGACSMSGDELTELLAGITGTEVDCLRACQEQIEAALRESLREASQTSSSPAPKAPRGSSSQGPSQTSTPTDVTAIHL

Row | Compound | IC50 [1, 3] [µM] | IC50 [2, 4] [µM] | IC50 [1, 5] [µM] | IC50 [2, 6] [µM]
1 | CC(C)Nc1nc([C@@H](C)O)cc2cnc(Nc3ccc(N4CCCC(N(C)C)C4)nn3)nc12 (stereo partly shown) [Compound 1220] | ≥ 0.1 | < 0.01 |  | 
2 | CC(C)Nc1nc(C(F)F)cc2cnc(Nc3ccc(CCCCO)cn3)nc12 [Compound 108] |  |  | 0.01 to 0.1 | < 0.01
3 | CC(C)Nc1nc(C(F)F)cc2cnc(Nc3ccc(C4CCNC(=O)C4)cn3)nc12 (stereo not shown) [Compound 218] |  |  | 0.01 to 0.1 | < 0.01
4 | CC(C)Nc1nc([C@@H](C)O)cc2cnc(Nc3ccc(CN4CCC(CO)CC4)cn3)nc12 [Compound 1016] | ≥ 0.1 | < 0.01 |  | 
5 | CO[C@H](C)c1cc2cnc(Nc3ccc(C4CCNCC4)cn3)nc2c(NC(C)C)n1 [Compound 232] |  |  | ≥ 0.1 | < 0.01
6 | CC(O)c1cc2cnc(Nc3ccc(N4CCNCC4)cn3)nc2c(NC(C)c2cc[nH]n2)n1 (stereo not shown) [Compound 105] |  |  | ≥ 0.1 | < 0.01
7 | OCc1cc2cnc(Nc3ccc(N4CCNCC4)cn3)nc2c(NC2CCCC2)n1 [Compound 6] |  |  | 0.01 to 0.1 | < 0.01
8 | CC(C)Nc1nc(C(F)F)cc2cnc(Nc3ccc(CN(C[C@H]4CCCO4)S(C)(=O)=O)cn3)nc12 [Compound 148] |  |  | ≥ 0.1 | 0.01 to 0.1
9 | CC(C)Nc1nc([C@@H](C)O)cc2cnc(Nc3ccc(-c4cnn(C5CCNCC5)c4)cn3)nc12 [Compound 808] | ≥ 0.1 | < 0.01 |  | 
10 | CC(=O)N(C)Cc1ccc(Nc2ncc3cc(C(F)F)nc(NC(C)C)c3n2)nc1 [Compound 139] |  |  | 0.01 to 0.1 | < 0.01
11 | CC(C)Nc1nc(C(F)F)cc2cnc(Nc3ccc(CCC(C)(C)O)cn3)nc12 [Compound 154] |  |  | ≥ 0.1 | < 0.01
12 | CCNc1nc([C@@H](C)O)cc2cnc(Nc3ccc(CN4CCN(CCO)C[C@@H]4C)cn3)nc12 [Compound 983] | ≥ 0.1 | < 0.01 |  | 
13 | CC(C)Nc1nc([C@@H](C)O)cc2cnc(Nc3ccc(N4CCC(C)(N)CC4)nn3)nc12 [Compound 561] |  |  | ≥ 0.1 | < 0.01
14 | CO[C@H](C)c1cc2cnc(Nc3ccc4c(n3)CCN(C(=O)OCCN(C)C)C4)nc2c(N[C@H]2CCCOC2)n1 [Compound 1135] | ≥ 0.1 | < 0.01 |  | 
15 | CCNc1nc([C@@H](C)O)cc2cnc(Nc3ccc4c(n3)CCN(CCO)C4)nc12 [Compound 1124] | ≥ 0.1 | 0.01 to 0.1 |  | 
16 | CC(=O)N(Cc1ccc(Nc2ncc3cc(C(F)F)nc(NC(C)C)c3n2)nc1)C[C@@H]1CCCO1 [Compound 146] |  |  | ≥ 0.1 | < 0.01
17 | C[C@@H](O)c1cc2cnc(Nc3ccc(CC4CCNCC4)cn3)nc2c(NCC2CCOCC2)n1 [Compound 952] | ≥ 0.1 | < 0.01 |  | 
18 | CC(C)Nc1nc([C@@H](C)O)cc2cnc(Nc3ccc(NC(=O)C4CCNCC4)cn3)nc12 [Compound 768] | ≥ 0.1 | < 0.01 |  | 
19 | C[C@@H](O)c1cc2cnc(Nc3ccc(OCCN(C)C)cn3)nc2c(NC2CCC(C)(C)OC2)n1 (stereo partly shown) [Compound 600] |  |  | ≥ 0.1 | < 0.01
20 | CCNc1nc([C@@H](C)O)cc2cnc(Nc3ccc4c(n3)CCN(C(=O)OCCN(C)C)C4)nc12 [Compound 1142] | ≥ 0.1 | < 0.01 |  | 
21 | CCCNc1nc([C@@H](C)OC)cc2cnc(Nc3ccc4c(n3)CCN(CCO)C4)nc12 [Compound 1119] | ≥ 0.1 | < 0.01 |  | 
22 | Cc1nc(Nc2ncc3cc([C@@H](C)O)nc(NC(C)C)c3n2)ccc1N1CCNCC1 [Compound 924] | ≥ 0.1 | < 0.01 |  | 
23 | CO[C@H](C)c1cc2cnc(Nc3ccc(OC4CCNC4)cn3)nc2c(NC(C)C)n1 (stereo partly shown) [Compound 290] |  |  | ≥ 0.1 | < 0.01
24 | COCC(C)(C)Nc1nc([C@@H](C)O)cc2cnc(Nc3ccc(CN4CCCOCC4)cn3)nc12 [Compound 293] |  |  | ≥ 0.1 | < 0.01
25 | C[C@@H](O)c1cc2cnc(Nc3ccc(CN4CCNCC4)cn3)nc2c(N[C@H]2CCCOC2)n1 [Compound 256] |  |  | ≥ 0.1 | < 0.01
26 | CO[C@H](C)c1cc2cnc(Nc3ccc(CN4CCN(CCO)CC4)cn3)nc2c(N[C@H](C)CO)n1 [Compound 914] | ≥ 0.1 | < 0.01 |  | 
27 | CC(=O)c1cc2cnc(Nc3ccc(N4CCNCC4)cn3)nc2c(NC(C)(C)C)n1 [Compound 59] |  |  | ≥ 0.1 | < 0.01
28 | CCCNc1nc(C2CCOC2)cc2cnc(Nc3ccc(N4CCNCC4)cn3)nc12 (stereo not shown) [Compound 1004] | ≥ 0.1 | < 0.01 |  | 
29 | COC[C@H](C)Nc1nc([C@@H](C)O)cc2cnc(Nc3ccc(OCCN(C)C)cn3)nc12 [Compound 754] | ≥ 0.1 | 0.01 to 0.1 |  | 
